Experiments:
[1] = tested on: MC38 cells; experiment: DHR 123 ROS/RNS production, flow cytometry; format: cell-based, murine; conditions: IC50 concentration, 72 h
Experimental: For all flow cytometric analyses, MC38 cells were seeded overnight and then treated with the IC50 concentration of compound 3 for 72 h. The cells were harvested, washed, and stained according to the manufacturer’s instructions for each method. To determine whether the compound induces apoptosis, cells were double stained with AnnV-FITC and PI (15 μg mL^–1) for 15 min at RT in the dark. To detect caspase activity, cells were stained with the FITC-conjugated caspase inhibitor ApoStat for 30 min at [drawing 162] . To detect cell proliferation, MC38 cells were stained with CFSE (1 μM) for 10 min at [drawing 163] prior to seeding and then treated as previously described. To detect intracellular production of Reactive oxygen/nitrogen Species (ROS/RNS), MC38 cells were prestained with DHR 123 (1 [drawing 164] M) for 20 min at [drawing 165] , then seeded and exposed to an IC50 concentration of compound 3. After 72 h incubation, all samples were washed, resuspended in PBS and fluorescence intensity was analyzed using a CytoFLEX [drawing 166] flow cytometer (Beckman Coulter, Pasadena, CA, USA), while the data obtained was evaluated using the [drawing 167] software program.

[2] = target: T1, ovine COX-1 (Ovis aries, UniProt P05979); experiment: COX Fluorescent Inhibitor Screening Assay, COX-1; format: biochemical; conditions: absolute IC50, 0.1 to 100 μM in duplicate, 95% CI in brackets
T1 construct: purchased Cayman Chemical Company, Ann Arbor, MI, USA
T1 sequence (P05979 25-600): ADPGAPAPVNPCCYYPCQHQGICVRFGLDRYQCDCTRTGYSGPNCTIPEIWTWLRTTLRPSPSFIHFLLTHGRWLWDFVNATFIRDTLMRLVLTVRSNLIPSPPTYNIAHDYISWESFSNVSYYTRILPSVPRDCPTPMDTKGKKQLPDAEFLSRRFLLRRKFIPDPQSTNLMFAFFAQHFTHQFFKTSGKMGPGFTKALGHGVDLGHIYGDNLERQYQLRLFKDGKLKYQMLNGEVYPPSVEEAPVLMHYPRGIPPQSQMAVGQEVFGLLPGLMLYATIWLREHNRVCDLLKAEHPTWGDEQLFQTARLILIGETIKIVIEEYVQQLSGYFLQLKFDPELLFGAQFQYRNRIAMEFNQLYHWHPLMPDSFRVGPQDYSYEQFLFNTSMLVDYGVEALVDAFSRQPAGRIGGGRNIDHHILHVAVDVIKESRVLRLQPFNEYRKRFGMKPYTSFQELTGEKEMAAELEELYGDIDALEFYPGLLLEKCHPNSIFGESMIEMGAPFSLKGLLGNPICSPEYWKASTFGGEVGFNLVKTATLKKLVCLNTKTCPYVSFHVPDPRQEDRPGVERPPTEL
Experimental: The COX inhibition activity against ovine COX-1 and human recombinant COX-2 was determined using the COX Fluorescent Inhibitor Screening Assay Kit (Cayman Chemical Company, Ann Arbor, MI, USA) according to the manufacturer’s instructions as reported.

[3] = Stability in cell culture medium by HPLC; format: physicochemical
Experimental: In a preliminary test, the stability of all compounds dissolved in the cell medium (c = 100 μM, T = [drawing 47] ) for 72 h was validated by HPLC (see Supporting Information). Cell lines were incubated with the respective compounds in a concentration range of 1.56–100 μM for 72 h, and cell viability was measured using 3-(4,5-dimethylthiazol-2-yl)-2,5-diphenyltetrazolium bromide (MTT) and crystal violet (CV) assays. […] As MTT tests gave inconsistent results, possibly due to interference of the compound with mitochondrial respiration, for the further evaluation only the CV results are considered[97],[98].
Selg et al. Supp. Information
2 Stability Tests for Compound 3
In a 1 mL Eppendorf vial, 10 μL (0.05 μmol) of a freshly prepared 5 mM stock solution of compound 3 in DMSO was mixed with 490 μL of DMEM (Dulbecco's Modified Eagle Medium) containing 10% of fetal bovine serum and stored in an incubation oven at 40 °C for a total 72 hours. After 0, 24 and 72 hours, a 50 μL sample was collected from the mixture and diluted with 250 μL acetonitrile in a 500 μL Eppendorf vial to precipitate the proteins. The mixture was vortexed for 30 s before it was centrifuged for 20 min at 15,000 min-1 and 4 °C. […]
Figure S 2. […] Samples measured at 0, 24 and 72 hours (top to bottom) including the mass spectrum (right) and integration data (bottom). […]

1-[2-(7,8-dicarba-nido-undecaborate)]- [drawing 126] H-indolium-2-amine [compound 3]
production of ROS/RNS (DHR 123) [1]: strongly depleted | IC50 [2]: 15.3 µM | stability in cell medium by HPLC ([3]; 100 μM, 72 h, compound 3: DMEM with 10% fetal bovine serum, 40 °C, 0, 24 and 72 hours): no signs of decomposition | purity (relative area of integrals) after 72 hours in culture medium ([3]; DMEM with 10% fetal bovine serum, 40 °C, 72 hours): above 95%

From paper PMC11649784, “Re-design and evaluation of diclofenac-based carborane-substituted prodrugs and their anti-cancer potential” (Scientific Reports, 2024)
